Publication PMC6389993, “Quercetin and its metabolite isorhamnetin promote glucose uptake through different signalling pathways in myotubes” (Scientific Reports, 2019)
Read-outs that look alike come from different tables or passages of the source.

How the values were obtained:
[1] = system: GLUT4; assay: GLUT4 translocation to the plasma membrane in L6 myotubes (western blot); format: cell-based, rat; details: for GLUT4 translocation to the plasma membrane / expression level of GLUT4: 15 min; for expression level of GLUT4: 0.1–10 nM
Method: (§1) In vitro cultured cell experiments were conducted according to a previously described protocol[6],[14]. Briefly, L6 myoblasts derived from rat skeletal muscle and of less than 40 passages were maintained in MEM supplemented with 10% foetal bovine serum (FBS) and antibiotics (100 U/ml penicillin and 100 μg/ml streptomycin) at 37 °C under a humidified atmosphere condition of 5% CO2 and 95% air. In each experiment, cells (2.2 × 10^4 cells/ml) were seeded into 96-well plates or 60-mm dishes for induction of differentiation into mature myotubes. After reaching confluence, cells were supplemented with differentiation medium containing 2% FBS and the same antibiotics for 7 days. Cells were used for each experiment after morphological analysis of differentiation status using phase-contrast microscopy. To explore the contribution of CaMKKβ or intracellular-free calcium ions in quercetin- and isorhamnetin-stimulated GLUT4 translocation, L6 cells were incubated in the presence or absence of 10 μM STO-609 and 25 μM […], respectively, for 30 min prior to treatment with either quercetin or isorhamnetin.
(§2) For in vitro cell culture experiments, after serum starvation for 18 h, myotubes were treated with various concentrations of quercetin or isorhamnetin (0.1–10 nM) for 15 min; DMSO (final 0.1%) was used as a vehicle control. As positive controls, 100 nM insulin, 1 mM AICAR, 10 nM leptin, or 100 ng/mL IL-15 were used for insulin, AMPK, JAK2/STAT, or JAK3/STAT signalling pathways, respectively. Cells were treated with insulin or AICAR for 15 min, leptin for 60 min, or IL-15 for 24 h. Whole protein and plasma membrane fractions were prepared from myotubes, as previously described. For in vivo experiment, plasma membrane fraction and tissue lysate of soleus muscle were prepared.
(§3) Translocation of GLUT4 to the plasma membrane, as well as expression and phosphorylation levels of GLUT4-related regulators were estimated by western blot analysis. Briefly, equal amounts of proteins were separated by sodium dodecyl sulfate-polyacrylamide gel electrophoresis (SDS-PAGE). Separated proteins were transferred onto a polyvinylidene fluoride membrane and nonspecific binding sites were blocked using either Blocking One (to detect unphosphorylated proteins) or Blocking One-P (to detect phosphoproteins). The membrane was incubated overnight with an appropriate primary antibody for GLUT4 (1:5000), IR (1:10000), p-IRS1 (1:5000), IRS1 (1:5000), p-PI3K (1:5000), PI3K (1:10000), p-Akt (1:5000), Akt (1:10000), p-AMPKα (1:5000), AMPKα (1:10000), p-ACC (1:5000), ACC (1:10000), p-LKB1 (1:5000), LKB1 (1:10000), p-JAK2 (1:5000), JAK2 (1:5000), p-JAK3 (1:5000), JAK3 (1:10000), p-STAT1 (1:5000), STAT1 (1:10000), p-STAT3 (1:5000), STAT3 (1:10000), p-STAT5 (1:5000), STAT5 (1:10000), or β-actin (1:20000), and subsequently treated with the corresponding horseradish peroxidase-conjugated secondary antibody (1:50000) for 1 h. Specific immune complexes were developed using ImmunoStar® LD and detected with an ATTO Light-Capture II Western Blotting Detection System. Individual band density was calculated by ImageJ and normalized to the control.

[2] = system: AMPK; assay: Phosphorylation of AMPK in L6 myotubes (western blot); format: cell-based, rat; details: 15 min
Method: as §1, §2, §3
42 after morphological analysis of differentiation status using phase-contrast microscopy.
43 Preparation of whole protein and plasma membrane fractions After serum starvation
44 for 18 h, myotubes were treated with various concentrations of quercetin or isorhamnetin (1–
45 10 μM) for 15 min; DMSO (final 0.1%) was used as a vehicle control. As positive controls, […]

[3] = Plasma concentrations of quercetin and isorhamnetin in mice after oral EMIQ (HPLC); format: in vivo; details: male, ICR, mouse, HPLC without deconjugation, read-out: Concentration in plasma, Aglycone form
Method: All animal experiments were performed according to the guidelines for animal experiments at Kobe University Animal Experimentation Regulation and approved by the Institutional Animal Care and Use Committed of Kobe University (Permission 29-05-02). Male ICR mice (5 weeks old, n = 20) were obtained from Japan SLC (Shizuoka, Japan) and maintained at constant temperature (23 ± 2 °C) with a 12 h light-dark cycle (lights on at 8:00 am). Mice were subsequently randomly divided into four groups of five each, and acclimatized for 1 week with free access to tap water and a laboratory-purified diet (3.850 kcal/g diet) consisting of 76% carbohydrate, 15% protein and 9% fat) (Research Diets, Tokyo, Japan). For analysis of concentrations of quercetin and isorhamnetin in the plasma and GLUT4 translocation in the muscle, mice were orally administrated EMIQ at 10, 100, or 1000 mg/kg body weight, or water as a vehicle control after 18 h fasting. The mice were sacrificed 90 min after the administration under anesthesia using sodium pentobarbital and seroflurane, and euthanized by exsanguination from cardiac puncture. Plasma and soleus muscle were collected, and kept at -80 °C until use.
To determine the levels of quercetin and isorhamnetin after administration of EMIQ, the obtained plasma were analyzed using HPLC (UV 370 nm) with or without deconjugation treatment using glucuronidase/sulfatase[16]. Briefly, an aliquot of 250 μl of plasma was mixed with 50 μl of 20% (w/v) ascorbic acid and incubated with 125 μl of 75 mM potassium phosphate buffer (pH 6.8) with or without 500 U/sample β-glucronidase and 125 μl of 200 mM sodium acetate buffer (pH 5.0) with or without 10 U/sample sulfatase for 2 h at 37 °C after adding 2 μl of 1 mM nobiletin as an internal standard. To separate quercetin and isorhamnetin, mixture was applied on a Sep-Pak C18 1 cc Vac Cartridge and eluted with 2 ml 95% (v/v) methanol. After eluate was dried by evaporation, dried material was dissolved in 50 μl of 50% (v/v) methanol and applied to HPLC. HPLC was performed using a SHIMADZU LabSolutions system (SHIMADZU, Kyoto, Japan) with SPD-M20A diode array detector. HPLC separation was done with a gradient system using 0.02% aqueous phosphoric acid as mobile phase A and acetonitrile as mobile phase B with a Cadenza CL-C18 column (φ 4.6 mm × 250 mm, Kyoto, Japan) at a flow rate of 1.0 ml/min. The gradient program was 0–13 min, 20% B, 13–33 min, 50–80% B, 33–43 min, 100% B, 43–60 min, 20% B.

[4] = higher concentrations (1 μM and 10 μM)

SMILES: O=c1c(O)c(-c2ccc(O)c(O)c2)oc2cc(O)cc(O)c12 [quercetin, 3,3′,4′,5,7-pentahydroxy flavone]
- GLUT4 translocation to the plasma membrane ([1]; 0.1 nM): significantly increased GLUT4 translocation
- GLUT4 translocation to the plasma membrane ([1]; 1 nM): significantly increased GLUT4 translocation
- time-dependent changes in GLUT4 translocation ([1]; 1 nM, monitored 0–240 min): bell-shaped curve
- GLUT4 translocation to the plasma membrane ([1]; 10 nM): significantly increased GLUT4 translocation
- expression level of GLUT4 [1]: remained unchanged
- AMPK phosphorylation ([2]; 0.1 nM and 1 nM): promoted AMPK phosphorylation
- AMPK phosphorylation [2, 4]: induced phosphorylation of AMPK
- concentration at 90 min ([3]; plasma, oral, 90 min after oral EMIQ 10 mg/kg body weight): 4.95 ± 0.82 nM
- concentration at 90 min ([3]; plasma, oral, 90 min after oral EMIQ 100 mg/kg body weight): 6.8 ± 2 nM
- concentration at 90 min ([3]; plasma, oral, 90 min after oral EMIQ 1000 mg/kg body weight): 138 ± 45.1 nM

SMILES: COc1cc(-c2oc3cc(O)cc(O)c3c(=O)c2O)ccc1O [isorhamnetin, 3′-O-methyl quercetin]
- GLUT4 translocation to the plasma membrane ([1]; 1 nM): significantly increased GLUT4 translocation
- GLUT4 translocation to the plasma membrane ([1]; 10 nM): significantly increased GLUT4 translocation
- expression level of GLUT4 [1]: remained unchanged
- AMPK phosphorylation [2, 4]: induced phosphorylation of AMPK
- concentration at 90 min ([3]; in vivo, 90 min after oral EMIQ 1000 mg/kg body weight): 131 ± 51.5 nM
